Assay results reported in patent US12729194B2, “Compounds for the treatment of human immunodeficiency virus” (priority 2019, dated 2026).

Assays:
[1] = tested on: HIV-1 with HIV-1JR-FL Env; assay: microbe, parasite or virus in culture; assay type: cell-based; settings: Human immunodeficiency virus 1; Cf2Th-CD4/CCR5 target cells, 48 hours, luciferase; means and standard errors of four experiments; read-out: 50% inhibitory concentration (IC50), JR-FL
HIV-1AD8 Env on VLPs [2] = assay: Reversibility of compound effects on VLP Env conformation (19b antibody recognition after washing); settings: for Durability / reversibility of Env conformational effects (in words): after washing
Protocol: (§1) Characterization of VLP-associated Env: To prepare VLPs with HIV-1AD8 Env, 150-mm dishes of 30-40% confluent A549-Gag/Env cells were seeded and, on the following day, treated with 2 μg/ml doxycycline. Approximately 72 hours after induction, cell supernatants were harvested and cleared by low-speed centrifugation (500×g for 15 minutes at 4° C.) and 0.45-μ filtration. VLPs were pelleted by centrifugation at 100,000×g for one hour at 4° C. The resuspended VLP preparation was clarified by low-speed centrifugation. BMS-806 and compounds described herein were added to the clarified VLP-containing suspensions. In some cases, the VLP-compound mixtures were irradiated with a 100-watt, 365-nm ultraviolet (UV) lamp for 10 minutes at room temperature. For all UV studies, exposure of the samples to visible light was minimized.
For studies of the reversibility of effects, the compounds were added to the VLPs and mixed for several seconds at room temperature. Then the VLPs were pelleted (20,000×g for 30 minutes at 4° C.) twice, washing with 1.5 ml PBS with 2% DMSO. The pelleted VLPs were resuspended in 1 ml PBS with 2% DMSO and incubated at room temperature for various lengths of time (20 minutes—3 weeks). Control VLPs were incubated in the continued presence of the compounds at room temperature for the same length of time. Then the VLPs were pelleted (20,000×g for 30 minutes at 4° C.) and the pellet incubated with 1.5% Triton X-100 for 30 minutes at 4° C. The VLP lysates were centrifuged (20,000×g for 30 minutes at 4° C.) and the supernatants were incubated with antibodies (10 μg/ml) in a 50-μl volume with 25 mg/ml of Protein A-Sepharose beads for one hour at 4° C. The beads were pelleted (1000 rpm for 1 minute at room temperature) and washed three times with 1 ml wash buffer with 1% Triton X-100. The beads were suspended in NuPAGE LDS Sample Buffer (ThermoFisher), boiled and analyzed by Western blot, as described above.
The BMS-806-induced decrease in binding of the 19b anti-V3 antibody can be used as an indicator of BMS-806-Env binding, allowing estimation of the stability of the Env-compound complex. BMS-806 and BMS-529 were incubated with the HIV-1AD8 Env on VLPs. The VLPs were then washed and incubated at room temperature for various lengths of time in a buffer with (+/+) or without (+/−) compound. After this incubation, Env conformation was assessed using the 19b anti-V3 antibody, the 2G12 antibody (the binding of which is not affected by BMS-806), and a negative control human immunoglobulin (hIgG) preparation. 19b recognition of Env in the washed samples (+/−) was compared with those in the samples continuously incubated with the compound (+/+) and the untreated samples (−) (FIG. 4). […] Despite this slow rate of dissociation of compounds described herein from Env, the binding and the consequent effects of these compounds on Env conformation appear to be reversible.

[3] = tested on: HIV-1 with JR-FL S375W Env; assay type: cell-based; settings: Cf2Th-CD4/CCR5 target cells, 48 hours, luciferase; read-out: 50% inhibitory concentration (IC50), JR-FL S375W
HIV-1 with HIV-1AD8 Env = assay: microbe, parasite or virus in culture; assay type: cell-based; settings: for IC50: Human immunodeficiency virus 1, Cf2Th-CD4/CCR5 target cells, 48 hours, luciferase, means and standard errors of four experiments, read-out: 50% inhibitory concentration (IC50), AD8; for Potency of inhibition of HIV-1 infection (in words): Table 1 HIV-1 Envs
[4] = tested on: envelope glycoproteins of the amphotropic murine leukemia virus (AMLV); assay: microbe, parasite or virus in culture; assay type: cell-based; settings: Cf2Th-CD4/CCR5 target cells, 48 hours, luciferase, specificity control, read-out: 50% inhibitory concentration (IC50), AMLV
HIV-1 with BG505 Env = assay: microbe, parasite or virus in culture; assay type: cell-based; settings: Human immunodeficiency virus 1; Cf2Th-CD4/CCR5 target cells, 48 hours, luciferase; means and standard errors of four experiments; read-out: 50% inhibitory concentration (IC50), BG505
HIV-1AD8 Env on VLPs [5] = assay: Shedding of gp120 from VLP Env; settings: 4° C. and 37° C., 4 days, no detergent
Protocol: Shedding of gp120 from VLP Env: The effect of compounds on the spontaneous shedding of gp120 from VLP Env was evaluated. VLPs with the wild-type HIV-1AD8 Env were prepared from the supernatants of A549-Gag/Env cells, as described above. The VLPs were suspended in PBS, to which was added either DMSO or a compound described herein. An aliquot of the VLP suspension in PBS/DMSO was processed as described below to serve as a Day 0 control. The VLP suspensions were incubated for 4 days at 4° C., room temperature or 37° C. (with gentle rocking). Then the VLPs were pelleted (100,000×g for 30 min at 4° C.). The pellets and supernatants were boiled in LDS sample buffer and analyzed by Western blotting with either 1:2000 goat anti-gp120 polyclonal antibody (ThermoFisher) and HRP-conjugated rabbit anti-goat IgG antibody, or with 1:5000 rabbit anti-Gag p55/p24/p17 antibody (Abcam) and HRP-conjugated goat anti-rabbit IgG antibody (Abcam).

VLP HIV-1AD8 Env = assay: Antibody recognition of VLP-associated Env; settings: compound plus UV irradiation
Protocol: as §1
For studies of the binding of ligands (antibodies, CD4-Ig and C34-Ig) to detergent-solubilized VLP Env, VLPs prepared as described above were pelleted (20,000×g for 30 minutes at 4° C.). The pellet was incubated with 1.5% Triton X-100 for 30 minutes at 4° C. The VLP lysates were centrifuged (20,000×g for 30 minutes at 4° C.) and the supernatants were incubated with ligands (10 μg/ml) in a 50-μl volume with 25 mg/ml of Protein A-Sepharose beads for one hour at 4° C. The beads were pelleted (1000 rpm for 1 minute at room temperature), washed three times with 1 ml wash buffer with 1% Triton X-100, suspended in LDS Sample Buffer and analyzed by Western blot, as described above.
In a second assay format, the effect of the compounds was analyzed on the binding of antibodies to Env on intact VLPs, in the absence of detergent. In this case, VLPs in A549-Gag/Env supernatants, clarified as described above, were pelleted at 100,000×g for one hour at 4° C. The pellet was resuspended in PBS and the VLPs pelleted at 20,000×g for 30 minutes at 4° C. The VLPs were resuspended in PBS and incubated with antibodies (10 μg/ml) in a 100-μl volume for one hour at 4° C. The VLPs were then pelleted (20,000×g for 30 minutes at 4° C.) and washed with PBS three times. The VLP pellet was then solubilized in 1.5% Triton X-100 for 30 minutes at 4° C., after which the VLP lysates were clarified by centrifugation at 20,000×g for 30 minutes at 4° C. The supernatants were incubated with 50 μl of Protein A-Sepharose beads for one hour at 4° C. The beads were pelleted (1000 rpm for 1 minute at room temperature), washed three times with 1 ml wash buffer with 1% Triton X-100, suspended in LDS Sample Buffer, and analyzed by Western blot, as described above.

Structure (SMILES) | IC50 [1] | Durability / reversibility of Env conformational effects (in words) (HIV-1AD8 Env on VLPs [2]) | IC50 [3] | IC50 (HIV-1 with HIV-1AD8 Env) | Potency of inhibition of HIV-1 infection (in words) (HIV-1 with HIV-1AD8 Env) | IC50 [4] | Time until conformational effects on Env are reversed after washing (HIV-1AD8 Env on VLPs [2]; VLPs in PBS with 2% DMSO, room temperature) | Conformational effect on 19b binding after washing (HIV-1AD8 Env on VLPs [2]; twenty-four hours after washing, room temperature) | IC50 (HIV-1 with BG505 Env) | Spontaneous shedding of gp120 into the VLP supernatant (HIV-1AD8 Env on VLPs [5]) | VLP Env recognition by poorly neutralizing antibodies two weeks after treatment (VLP HIV-1AD8 Env; washed, two weeks without compound) | VLP Env recognition by bNAbs two weeks after treatment (VLP HIV-1AD8 Env; PG9, PGT145, PGT151, 35022, 2F5, 4E10, 10E8)
O=C(Nc1cccc2c(C(=O)C(=O)N3CCN(C(=O)c4ccccc4)CC3)c[nH]c12)c1ccccc1 [AEG-III-096] | 0.9 nM | much faster reversibility | > 100 nM | 2.4 nM | potencies comparable to that of BMS-806 | > 100 nM | – | – | – | – | – | –
COc1cnc(-n2cnc(C)n2)c2[nH]cc(C(=O)C(=O)N3CCN(C(=O)c4ccccc4)CC3)c12 [BMS-529, reference compound] | – | – | – | – | – | – | 2 to 4 days | still apparent | – | – | – | –
COc1ccc(-c2ccc(CNC(=O)c3ccc(C4(C(F)(F)F)N=N4)cc3)o2)c2[nH]cc(C(=O)C(=O)N3CCN(C(=O)c4ccccc4)CC3)c12 [AEG-II-159] | 1.6 nM | at least three weeks | > 100 nM | 0.2 nM | – | > 100 nM | – | – | 0.8 nM | – | – | –
O=C(Nc1cccc2c(C(=O)C(=O)N3CCN(C(=O)c4ccccc4)CC3)c[nH]c12)c1ccc(C2(C(F)(F)F)N=N2)cc1 [AEG-III-087] | 0.1 nM | – | > 100 nM | 0.06 nM | – | > 100 nM | – | – | 1.9 nM | decreased the shedding of gp120 | lowered Env recognition by poorly neutralizing antibodies | this increase was not seen
COc1ccc(-c2ccc(CNC(=O)c3ccccc3)o2)c2[nH]cc(C(=O)C(=O)N3CCN(C(=O)c4ccccc4)CC3)c12 [AEG-III-032] | 0.6 nM | – | > 100 nM | 0.36 nM | potencies comparable to that of BMS-806 | > 100 nM | – | – | 1.5 nM | – | – | –
